The text below walks through data of US6780976B2, “Enone reductases, methods for producing same, and methods for selectively reducing a carbon-carbon double bond of an alpha,beta-unsaturated ketone using the reductases” (Daicel Chemical Industries, Ltd., priority 2001, dated 2004).

Series [1] has as its system enone reductase. Put plainly: Substrate specificity of purified enone reductase. The series is classed as biochemical, Kluyveromyces lactis. Conditions: enzyme obtained in Example 1. On the procedure:
A reaction mixture containing 50 mM potassium phosphate buffer (pH 6.5), […], 20 mM methyl vinyl ketone, and the enzyme is reacted at 30° C., and the decrease in absorbance at 340 nm, which is associated with the decrease of the amount of NADPH, is measured. 1 U is defined as the amount of enzyme catalyzing a decrease of 1 μmol NADPH in one minute. Quantitative analysis of the polypeptide is conducted by pigment binding methods using the protein assay kit (Bio-Rad Laboratories Inc.).
The enzyme obtained in Example 1 was reacted with various enones, ketones, and aldehydes, and the dehydrogenation activity was assayed. The result was represented by a relative activity, taking the dehydrogenation activity of the enzyme on methyl vinyl ketone as 100, and the results are shown in Table 2.

For series [2], the system named is enone reductase. Put plainly: Activity of bacterial cell extract of E. coli HB101 (pSE-KLR1) expressing recombinant enone reductase to various substrates. To be noted: for Relative activity: methyl vinyl ketone = 100. The series is classed as biochemical, Kluyveromyces lactis. Here is the method:
(§1) A reaction mixture containing 50 mM potassium phosphate buffer (pH 6.5), 0.2 mM NADPH, 20 mM methyl vinyl ketone, and the enzyme is reacted at 30° C., and the decrease in absorbance at 340 nm, which is associated with the decrease of the amount of NADPH, is measured. 1 U is defined as the amount of enzyme catalyzing a decrease of 1 μmol NADPH in one minute. Quantitative analysis of the polypeptide is conducted by pigment binding methods using the protein assay kit (Bio-Rad Laboratories Inc.).
E. coli HB101 strain, transformed with plasmid pSE-KLR1 expressing the enone reductase, was cultured overnight in liquid LB medium containing ampicillin at 30° C. 0.1 mM IPTG was added to the culture, and then, was further cultured for 4 hours.
(§2) The bacterial cells were harvested by centrifugation, and then, were suspended in 50 mM potassium phosphate buffer (pH8.0) containing 0.02% 2-mercaptoethanol, 2mM PMSF, and 10% glycerin. The cells were treated in a closed-chamber sonicator UCD-200TM (Cosmo Bio) for 3 minutes to crush the cells. The bacterial cell lysate was centrifuged and the supernatant was recovered as bacterial cell extract. The extract was assayed for activities to various types of substrates. In addition, E. coli HB 101 strain without the plasmid was cultured overnight in LB culture medium. 0.1 mM IPTG was added to the culture, and then, was further cultured for 4 hours. The bacterial cells were crushed by the same method as above, and the extract was assayed for the activities to various types of substrates.

In series [3] the test system is E. coli HB 101 strain without the plasmid. Kind of series: Activity of bacterial cell extract of host only (E. coli HB101 without the plasmid) to various substrates. The series is classed as biochemical. On the procedure: as §1, §2
Series [4] can be described thus: Enone reductase activity of cell-free extracts of E. coli JM109 expressing the homologues YNN4, YL60, YCZ2. The series is classed as biochemical. To be noted: E. coli JM109 with pSE-YNN4, pSE-YL60 or pSE-YCZ2; 0.1 mM IPTG, 4 hours. Here is the method: as §1
E. coli JM109 strains, each containing pSE-YNN4, pSE-YL60 or pSE-YCZ2, were cultured in LB culture medium containing ampicillin. The induction of the enzyme was achieved by adding 0.1 mM IPTG and culturing for 4 hours. The bacterial cells were harvested by centrifugation. Respective bacterial cells were suspended in cell lysis buffer (50 mM KPB (pH 8.0), 1 mM EDTA, 0.02% 2-ME, 2 mM PMSF, and 10% glycerol); and the cells were lysed in a sonicator. The supernatant prepared by centrifugation was used as the cell-free extract.
Each of the cell-free extract was assayed for the enone reductase activity. […] Thus, it was verified that all of the three types of homologues of the enzyme of the present invention had the requisite enone reductase activity.

Series [5] is described as follows: Methyl vinyl ketone-reducing activity of the purified enzyme (specific activity, pH and temperature dependency). Type of series: biochemical. To be noted: after Phenyl-Superose, NADPH. Here is the method:
as §1
Specific activity of the purified enzyme was about 31.7 U/mg.
The methyl vinyl ketone-reducing activity of the enzyme obtained in Example 1 was tested, by altering the pH of the reaction with potassium phosphate buffer and Britton Robinson buffer. The optimal pH for the reaction was determined to be 6.5 to 7.0.
The methyl vinyl ketone-reducing activity of the enzyme obtained in Example 1 was assayed under standard reaction conditions, with the exception that only the temperatures were altered. The optimal temperature was 37 to 45° C.

Where [6] appears, read: coenzyme NADPH, activity on methyl vinyl ketone taken as 100.
[7] abbreviates: coenzyme NADH, activity on methyl vinyl ketone (NADPH) taken as 100.

As to `CC(=O)C(C)=O` [2,3-butanedione], the Relative activity with enone reductase [1] (setting [6]) was found to be 1%. Consider `CCC(C)=O` [2-butanone], for which the Relative activity in the series with enone reductase [1] (setting [6]) came out at 0%.

In the case of `CC1=CCCC1=O` [2-methyl-2-cyclopenten-1-one], the Relative activity in the series on enone reductase [1] (setting [6]) is listed as 0%. As for `CC1=CC(=O)CC1` [3-methyl-2-cyclopenten-1-one], the Relative activity with enone reductase [1] (setting [6]) is recorded as 0%. With `CC=C(C)C(C)=O` [3-methyl-3-pentene-2-one], the Relative activity in the series on enone reductase [1] (setting [6]) is given as 48%; in the series on enone reductase [2], 32.4%. In addition, the Specific activity is 2.52 U/mg with enone reductase [2] and 0.004 U/mg in series [3].

As to `CC=CC(C)=O` [3-pentene-2-one], the Relative activity is reported as 16% in the series with enone reductase [1] (setting [6]) and 15.9% in the series on enone reductase [2]. In addition, the values for the Specific activity (with enone reductase [2]; in series [3]) were 1.23 U/mg and 0.015 U/mg, respectively.

For `CC(=O)C=C(C)C` [4-methyl-3-pentene-2-one], in the series with enone reductase [1] (setting [6]), the Relative activity is 1%. On the same count and under the same terms, the value for `CC(=O)c1ccccc1` [Acetophenone] was 0%; that for `C/C=C/C(=O)O` [Crotonic acid] was 0%.

Turning to `C=CC(=O)CC` [Ethyl vinyl ketone], the Relative activity amounted to 52% with enone reductase [1] (setting [7]) and 537% in the series with enone reductase [1] (setting [6]). For the same molecule, the Specific activity was found to be 41.8 U/mg with enone reductase [2] and 0.073 U/mg in series [3]. `C=CC(C)=O` [Methyl vinyl ketone]: the results for the Relative activity in the series with enone reductase [1] (setting [7]), in the series on enone reductase [1] (setting [6]) and in the series with enone reductase [2] were 14%, 100% and 100%, respectively. Further, the Specific activity in the series with enone reductase [2] is recorded as 7.78 U/mg; in series [3], 0.066 U/mg. `CC(=O)C=O` [Methylglyoxal]: the Relative activity in the series with enone reductase [1] (setting [6]) turned out to be 1%.

B1: YCZ2: Saccharomyces cerevisiae enone reductase homologue, SEQ ID NO:8, expressed in E. coli from pSE-YCZ2 (protein)
chain: MKAVVIEDGKAVVKEGVPIPELEEGFVLIKTLAVAGNPTDWAHIDYKVGPQGSILGCDAAGQIVKLGPAVDPKDFSIGDYIYGFIHGSSVRFPSNGAFAEYSAISTVVAYKSPNELKFLGEDVLPAGPVRSLEGAATIPVSLTTAGLVLTYNLGLNLKWEPSTPQRNGPILLWGGATAVGQSLIQLANKLNGFTKIIVVASRKHEKLLKEYGADQLFDYHDIDVVEQIKHKYNNISYLVDCVANQNTLQQVYKCAADKQDATVVELTNLTEENVKKENRRQNVTIDRTRLYSIGGHEVPFGGITFPADPEARRAATEFVKFINPKISDGQIHHIPARVYKNGLYDVPRILEDIKIGKNSGEKLVAVLN
Take B1: in series [4], the “Enone reductase activity of cell-free extract” value was 0.133 U/mg protein.

B2: YNN4: Saccharomyces cerevisiae enone reductase homologue, SEQ ID NO:4, expressed in E. coli from pSE-YNN4 (protein)
chain: MSASIPETMKAVVIENGKAVVKQDIPIPELEEGFVLIKTVAVAGNPTDWKHIDFKIGPQGALLGCDAAGQIVKLGPNVDAARFAIGDYIYGVIHGASVRFPSNGAFAEYSAISSETAYKPAREFRLCGKDKLPEGPVKSLEGAVSLPVSLTTAGMILTHSFGLDMTWKPSKAQRDQPILFWGGATAVGQMLIQLAKKLNGFSKIIVVASRKHEKLLKEYGADELFDYHDADVIEQIKKKYNNIPYLVDCVSNTETIQQVYKCAADDLDATVVQLTVLTEKDIKEEDRRQNVSIEGTLLYLIGGNDVPFGTFTLPADPEYKEAAIKFIKFINPKINDGEIHHIPVKVYKNGLDDIPQLLDDIKHGRNSGEKLVAVLK
With B2, the “Enone reductase activity of cell-free extract” value in series [4] was 0.268 U/mg protein.

B3: enzyme obtained in Example 1: NADPH-dependent enone reductase purified from Kluyveromyces lactis IFO 1267; amino acid sequence SEQ ID NO:2 (protein)
chain: MSVPTTQKAVIIEGDKAVVKTDVSVPELKEGTALVKVEAVAGNPTDWKHIAYKIGPEGSILGCDIAGTVVKLGPNASTDLKVGDTGFGFVHGASQTDPKNGAFAEYARVYPPLFYKSNLTHSTADEISEGPVKNFESAASLPVSLTTAGVSLCHHLGSKMEWHPSTPQHTHPLLIWGGATAVGQQLIQVAKHINAYTKIVTVASKKHEKLLKSYGADDVFDYHDAGVIEQIKSKYPNLQHVIDAVGSEDSIPEAYKVTADSLPATLLEVVPMTIESIPEEIRKDNVKIDITLLYRASGQEILLGATRFPASPEYHEATVKFVKFINPHLNNGDIHHMNIKVFSNGLDDVPALTEGIKEGKNKNVKYVARL
As to B3, in series [5], the “Specific activity of the purified enzyme” value is “about 31.7 U/mg”.

B4: YL60: Saccharomyces cerevisiae enone reductase homologue, SEQ ID NO:6, expressed in E. coli from pSE-YL60 (protein)
chain: MAQVAIPETMKAVVIEDGKAVVKEGIPIPELEEGFVLIKTLAVAGNPTDWAHIDYKIGPQGSILGCDAAGQIVKLGPAVNPKDFSIGDYIYGFIHGSSVRFPSNGAFAEYSAISTVVAYKSPNELKFLGEDVLPAGPVRSLEGVATIPVSLTTAGLVLTYNLGLDLKWEPSTPQRKGPILLWGGATAVGQSLIQLANKLNGFTKIIVVASRKHEKLLKEYGADELFDYHDIDVVEQIKHKYNNISYLVDCVANQDTLQQVYKCAADKQDATIVELKNLTEENVKKENRRQNVTIDIIRLYSIGGHEVPFGNITLPADSEARKAAIKFIKFINPKINDGQIRHIPVRVYKNGLCDVPHILKDIKYGKNSGEKLVAVLN
On to B4, for which the “Enone reductase activity of cell-free extract” value in series [4] is reported as 0.198 U/mg protein.
